Test results reported in the CheMixHub ionic liquid set.
± gives the uncertainty stated by the source.

Experiment: xn = mol fraction of the nth substance listed
Conditions: 100 kPa, frequency 0.01 MHz

O=C1CCCCCO1 + CCCC[n+]1ccn(C)c1.O=S(=O)([N-]S(=O)(=O)C(F)(F)F)C(F)(F)F
electrical conductivity [S/m]
Conditions | 293.15 K | 298.15 K | 303.15 K | 308.15 K | 313.15 K | 318.15 K | 323.15 K
x2 = 0.05 | 0.137 ± 0.007 | 0.15 ± 0.007 | 0.162 ± 0.008 | 0.175 ± 0.009 | 0.188 ± 0.009 | 0.201 ± 0.01 | 0.209 ± 0.011
x2 = 0.1002 | 0.269 ± 0.011 | 0.294 ± 0.012 | 0.319 ± 0.013 | 0.338 ± 0.014 | 0.364 ± 0.015 | 0.393 ± 0.017 | 0.421 ± 0.018
x2 = 0.1505 | 0.378 ± 0.016 | 0.414 ± 0.017 | 0.454 ± 0.019 | 0.485 ± 0.02 | 0.521 ± 0.021 | 0.565 ± 0.023 | 0.605 ± 0.025
x2 = 0.1985 | 0.504 ± 0.02 | 0.548 ± 0.022 | 0.598 ± 0.024 | 0.649 ± 0.026 | 0.706 ± 0.028 | 0.772 ± 0.031 | 0.847 ± 0.034
x2 = 0.3001 | 0.589 ± 0.024 | 0.647 ± 0.026 | 0.715 ± 0.029 | 0.779 ± 0.031 | 0.855 ± 0.034 | 0.943 ± 0.038 | 1.03 ± 0.041
x2 = 0.3987 | 0.567 ± 0.023 | 0.64 ± 0.026 | 0.721 ± 0.029 | 0.803 ± 0.032 | 0.894 ± 0.036 | 0.983 ± 0.039 | 1.08 ± 0.043
x2 = 0.4903 | 0.526 ± 0.021 | 0.594 ± 0.024 | 0.674 ± 0.027 | 0.766 ± 0.031 | 0.856 ± 0.034 | 0.955 ± 0.038 | 1.05 ± 0.042
x2 = 0.6309 | 0.451 ± 0.018 | 0.523 ± 0.021 | 0.607 ± 0.024 | 0.688 ± 0.028 | 0.774 ± 0.031 | 0.872 ± 0.035 | 0.969 ± 0.039
x2 = 0.6988 | 0.418 ± 0.017 | 0.489 ± 0.02 | 0.564 ± 0.023 | 0.645 ± 0.026 | 0.73 ± 0.029 | 0.829 ± 0.033 | 0.928 ± 0.037
x2 = 0.8042 | 0.374 ± 0.015 | 0.441 ± 0.018 | 0.515 ± 0.021 | 0.598 ± 0.024 | 0.689 ± 0.028 | 0.783 ± 0.031 | 0.885 ± 0.035
x2 = 0.883 | 0.356 ± 0.014 | 0.417 ± 0.017 | 0.489 ± 0.02 | 0.573 ± 0.023 | 0.665 ± 0.027 | 0.759 ± 0.03 | 0.862 ± 0.034
